Data on 13 molecules can be found in US9139581B2 (PORTOLA PHARMACEUTICALS, INC., priority 2008, dated 2015).

SMILES strings stand for the structures.

For one experiment, the target named is T1, JAK1 (Homo sapiens, UniProt P23458).
T1 construct: purchased Millipore Upstate KinaseProfiler
The experiment can be described thus: Millipore Upstate KinaseProfiler screening, JAK1 catalytic activity. Format: biochemical. As to conditions: Table 5; read-out: Inhibition (IC50%) of catalytic activity of JAK 1.

The next experiment addresses T2, JAK2 (Homo sapiens, UniProt O60674).
T2 construct: purchased Millipore Upstate KinaseProfiler
The experiment can be described thus: Millipore Upstate KinaseProfiler screening, JAK2 catalytic activity. Format: biochemical. As to conditions: Table 5; read-out: Inhibition (IC50%) of catalytic activity of JAK 2.

The next experiment addresses T3, Purified human JAK3 (Homo sapiens, UniProt P52333).
T3 construct: purchased Millipore Upstate KinaseProfiler; host or cells: insect cells
The experiment in a line: Millipore Upstate KinaseProfiler screening, JAK3 catalytic activity. Format: biochemical. As to conditions: for IC50: Table 5, read-out: Inhibition (IC50%) of catalytic activity of JAK 3; for inhibition at 0.3 µM: 0.3 μM compound. Here is the method: This assay is a direct measurement of the effect of compound on the catalytic activity of JAK3. Purified human JAK3 (GenBank AF513860) sequence (residue 781-C terminus) was obtained from insect cells. The catalytic hydrolysis of ATP is measured using a radiometric filter binding method. Incubation of kinase with ^33-[P]ATP and substrate leads to incorporation of ^33[P] into the substrate which can then be separated from the other reaction components by filtration. Assays were performed using 10 μM ATP and in the absence or presence of 1, 0.3, or 0.1 μM compound. Activity was expressed as % of inhibition of control.
In the table below, activity in the Jak assays is provided as follows: +++++=IC50<0.0010 μM; ++++=0.0010 μM<IC50<0.010 μM, +++=0.010 μM<IC50<0.10 μM, ++=0.10 μM<IC50<1 μM, +=IC50>1 μM.

For another experiment, the system named is SUDHL-6 and Toledo cells. The experiment in a line: Caspase 3 apoptosis assay. As to conditions: 1 μM, 72 h treatment. It is filed as cell-based, human. Here is the method:
Induction of apoptosis in non-Hodgkin's lymphoma B cell lines SUDHL-4, SUDHL-6, and Toledo was assessed by measuring the apoptotis marker Caspase 3. Cells were incubated with 1, 3, or 10 μM compound for 24, 48, and 72 hours. At the conclusion of each time point, cells were processed for flow cytometry analysis using the Monoclonal Rabbit Anti-Active Caspase-3 Antibody Kit and related protocols (BD Pharmingen). Data from two independent experiments are presented in Tables 5A and 5B, representing the percent of total cells undergoing apoptosis following incubation with compounds under the indicated conditions.
Induction of apoptosis was measured using the PE-conjugated monoclonal active caspase-3 antibody apoptosis kit (Becton Dickenson) following the supplied protocol. Cells were suspended in growth media (0.5×10^6 cells/ml) and treated with the indicated concentrations of each Syk inhibitor or vehicle control for 24, 48, or 72 hours prior to FACS analysis. The MTT (3-(4,5-Dimethylthiazol-2-yl)-2,5-diphenyltetrazolium bromide, a tetrazole) assay […] was used as a measure of cell viability and growth, following protocols supplied by the manufacturer. Cells were treated with the indicated concentrations of each Syk inhibitor or vehicle control for 72 hours.
Selective inhibition of Syk was sufficient to induce apoptosis in “BCR-type” NHL cell lines.

Experiment [1] relates to SUDHL-4 and SUDHL-6 cells. As to conditions: Chen, Monti et al. 2008; cited from earlier work.
In experiment [2] the test system is Toledo and Karpas-422 cell lines. To be noted: Chen, Monti et al. 2008; cited from earlier work.

T2 sequence (O60674 whole entry): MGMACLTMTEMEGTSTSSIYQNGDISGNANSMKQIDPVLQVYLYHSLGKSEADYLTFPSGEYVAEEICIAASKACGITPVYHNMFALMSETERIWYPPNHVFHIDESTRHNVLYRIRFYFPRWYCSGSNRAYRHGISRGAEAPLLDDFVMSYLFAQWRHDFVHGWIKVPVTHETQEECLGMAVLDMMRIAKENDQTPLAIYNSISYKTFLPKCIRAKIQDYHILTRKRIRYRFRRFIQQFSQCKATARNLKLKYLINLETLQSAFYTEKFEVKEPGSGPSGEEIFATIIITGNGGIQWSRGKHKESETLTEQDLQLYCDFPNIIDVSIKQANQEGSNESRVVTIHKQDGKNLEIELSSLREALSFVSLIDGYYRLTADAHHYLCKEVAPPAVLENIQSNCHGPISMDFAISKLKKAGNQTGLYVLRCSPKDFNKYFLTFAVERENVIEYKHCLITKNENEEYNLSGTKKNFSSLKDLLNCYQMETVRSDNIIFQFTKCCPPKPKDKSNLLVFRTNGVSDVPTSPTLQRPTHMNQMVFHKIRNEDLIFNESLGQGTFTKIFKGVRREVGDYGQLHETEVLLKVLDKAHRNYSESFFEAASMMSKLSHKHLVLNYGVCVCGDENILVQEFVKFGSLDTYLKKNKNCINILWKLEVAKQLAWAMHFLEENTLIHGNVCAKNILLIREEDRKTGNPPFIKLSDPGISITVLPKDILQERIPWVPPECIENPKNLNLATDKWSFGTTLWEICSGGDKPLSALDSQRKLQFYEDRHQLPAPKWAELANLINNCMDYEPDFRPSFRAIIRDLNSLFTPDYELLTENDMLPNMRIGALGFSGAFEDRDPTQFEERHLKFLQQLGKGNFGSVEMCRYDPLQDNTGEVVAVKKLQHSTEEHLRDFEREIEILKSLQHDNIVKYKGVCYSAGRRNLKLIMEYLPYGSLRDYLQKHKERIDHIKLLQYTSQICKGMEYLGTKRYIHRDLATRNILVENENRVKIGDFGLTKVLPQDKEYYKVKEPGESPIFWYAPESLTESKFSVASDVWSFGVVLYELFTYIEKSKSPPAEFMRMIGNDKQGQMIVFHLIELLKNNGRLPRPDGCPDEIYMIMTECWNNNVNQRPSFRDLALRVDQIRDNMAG
T1 sequence (P23458 whole entry): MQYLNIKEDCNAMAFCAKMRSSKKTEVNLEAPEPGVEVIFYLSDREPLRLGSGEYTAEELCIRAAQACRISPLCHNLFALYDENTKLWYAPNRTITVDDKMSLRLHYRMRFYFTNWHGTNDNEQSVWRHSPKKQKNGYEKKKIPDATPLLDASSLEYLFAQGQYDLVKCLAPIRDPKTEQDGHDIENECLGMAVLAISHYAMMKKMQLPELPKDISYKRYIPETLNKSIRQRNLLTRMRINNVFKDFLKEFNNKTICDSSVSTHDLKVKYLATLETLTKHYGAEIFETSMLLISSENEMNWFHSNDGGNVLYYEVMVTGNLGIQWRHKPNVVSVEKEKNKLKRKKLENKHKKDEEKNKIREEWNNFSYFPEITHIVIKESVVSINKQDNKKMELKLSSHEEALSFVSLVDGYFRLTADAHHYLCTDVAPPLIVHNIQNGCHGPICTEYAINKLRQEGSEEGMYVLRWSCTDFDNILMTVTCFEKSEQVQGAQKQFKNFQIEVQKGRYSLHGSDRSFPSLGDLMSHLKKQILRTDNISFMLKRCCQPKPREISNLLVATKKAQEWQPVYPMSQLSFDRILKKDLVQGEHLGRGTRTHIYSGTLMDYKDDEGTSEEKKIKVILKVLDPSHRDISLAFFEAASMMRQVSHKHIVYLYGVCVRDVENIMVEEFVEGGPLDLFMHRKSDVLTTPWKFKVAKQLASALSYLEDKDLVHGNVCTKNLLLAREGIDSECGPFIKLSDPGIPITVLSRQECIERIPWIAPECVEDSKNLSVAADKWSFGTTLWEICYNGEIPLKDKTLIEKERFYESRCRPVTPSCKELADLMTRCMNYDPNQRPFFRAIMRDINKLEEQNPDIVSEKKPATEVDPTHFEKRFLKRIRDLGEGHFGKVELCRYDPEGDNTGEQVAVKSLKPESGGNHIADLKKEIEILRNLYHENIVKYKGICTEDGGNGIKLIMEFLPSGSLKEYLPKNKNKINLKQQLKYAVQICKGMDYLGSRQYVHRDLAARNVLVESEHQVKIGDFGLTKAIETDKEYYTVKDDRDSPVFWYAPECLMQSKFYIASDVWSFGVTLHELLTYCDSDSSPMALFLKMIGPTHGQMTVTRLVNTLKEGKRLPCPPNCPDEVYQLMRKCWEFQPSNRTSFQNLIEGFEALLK
T3 sequence (P52333 781-1124 limits assumed): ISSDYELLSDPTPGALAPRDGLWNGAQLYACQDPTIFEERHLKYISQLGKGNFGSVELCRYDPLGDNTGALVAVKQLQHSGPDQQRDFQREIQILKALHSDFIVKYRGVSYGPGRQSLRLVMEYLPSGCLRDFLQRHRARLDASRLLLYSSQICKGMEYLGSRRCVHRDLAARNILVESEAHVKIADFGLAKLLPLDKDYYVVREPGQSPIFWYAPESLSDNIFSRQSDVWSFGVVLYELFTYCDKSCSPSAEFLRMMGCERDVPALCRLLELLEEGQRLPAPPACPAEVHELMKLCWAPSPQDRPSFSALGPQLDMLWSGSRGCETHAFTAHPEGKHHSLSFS

As to `CC(=O)N1CCN(c2ccc(Nc3nc(N4CCC(CN)CC4)c4cc[nH]c4n3)cc2)CC1` [drawing 208], the IC50 on JAK1, at JAK2 and on Purified human JAK3 was 100 to 1000 nM throughout.
As to `c1cc2c(NC3CC3)nc(Nc3ccc4cn[nH]c4c3)nc2[nH]1` [drawing 213], testing at 0.3 µM on Purified human JAK3 (10 μM ATP) gave an inhibition of 41%. On Purified human JAK3 (1 μM compound, 10 μM ATP), 1 µM produced 77% inhibition.
On to `N#CCC(=O)N1CCCC(Nc2nc(Nc3ccc(C(N)=O)cc3)nc3[nH]ccc23)C1` (stereo not drawn) [drawing 212], for which the IC50 on JAK1, at JAK2 and on Purified human JAK3 was 10 to 100 nM each time.
As for `CCCCCCCCCCCCCC(=O)O[C@@H]1[C@@H](C)[C@@]2(O)[C@@H](C=C(CO)C[C@]3(O)C(=O)C(C)=C[C@@H]23)[C@@H]2C(C)(C)[C@]12OC(C)=O` [PMA], the Induction of apoptosis result in the experiment on SUDHL-6 and Toledo cells was “equally sensitive to induction of apoptosis”.
As to `N#Cc1c[nH]c2nc(Nc3ccc(S(N)(=O)=O)cc3)nc(NC3CC3)c12` [drawing 210], the 50% inhibitory concentration (IC50) on JAK1, on JAK2 and at Purified human JAK3 was 10 to 100 nM throughout.
In the case of `CN(C)C(=O)C1CCN(c2ccc(Nc3nc(NC4CC4)c4cc[nH]c4n3)cc2)CC1`, testing at 0.3 µM against Purified human JAK3 (10 μM ATP) gave an inhibition of 82%.
Regarding `c1cc2c(NC3CC3)nc(Nc3ccc4cn[nH]c4c3)nc2[nH]1` [drawing 204], the IC50 at JAK1, at JAK2 and at Purified human JAK3 was 100 to 1000 nM throughout.
Regarding `CC(=O)c1c[nH]c2nc(Nc3ccc4cn[nH]c4c3)nc(NC3CC3)c12` [drawing 207], the IC50 on JAK1, at JAK2 and on Purified human JAK3 was over 1000 nM in each case.
As for `CS(=O)(=O)N1CCN(c2ccc(Nc3nc(Nc4cccc(S(N)(=O)=O)c4)c4cc[nH]c4n3)cc2)CC1`, the IC50 – broadly, the concentration that gives 50% inhibition – at JAK1 is over 1000 nM; on JAK2, 100 to 1000 nM; at Purified human JAK3, 100 to 1000 nM.
Take `NC(=O)c1c[nH]c2nc(Nc3ccc4c(c3)CCC(=O)N4)nc(NC3CC3)c12` [drawing 211]: the results for the IC50 on JAK1, at JAK2 and at Purified human JAK3 were over 1000 nM, 100 to 1000 nM and over 1000 nM, respectively.
Regarding `COc1cc(Nc2ncc(F)c(Nc3ccc4c(n3)NC(=O)C(C)(C)O4)n2)cc(OC)c1OC` [Example R406], the “Sensitivity to Syk inhibition by R406” value in experiment [1] is on record as “sensitive”. For the same molecule, in experiment [2], the “Sensitivity to R406” value is reported as “insensitive”.
Regarding `Cc1c[nH]c2nc(Nc3ccc4cn[nH]c4c3)nc(NC3CCC3)c12`, the IC50 at JAK1 is over 1000 nM; on JAK2, 100 to 1000 nM; at Purified human JAK3, 100 to 1000 nM.
Turning to `N#Cc1c[nH]c2nc(Nc3ccc4c(c3)CCC(=O)N4)nc(NC3CC3)c12` [drawing 209], the IC50 at JAK1, on JAK2 and on Purified human JAK3 was 10 to 100 nM throughout.
